Patent US20160178628A1, “Electrical Cell-substrate Impedance Sensor (ECIS)” (priority 2015, published 2016)

Tests used:
[1] = test system: MCF-7 cells; experiment: SiNW-ECIS impedance and capacitance measurement of drug-treated MCF-7 cells; assay type: cell-based, human; conditions: for change of norm in impedance of treated cells, T1 vs. T2: 2 hours vs. 6 hours after drug incubation; for norm of capacitive changes, control sample more than treated sample: 6 hours after drug incubation (T2)
Protocol: In this example, the diagnostic response of cells membrane to extremely low dose of antitubulin drugs is investigated. Initially, MCF-7 cell lines, isolated from grade I human breast tumors, were obtained from the National Cell Bank of Iran (Pasteur Institute). Then, cells were maintained in a CO2 incubator (37° C., 5% CO2) in RPMI-1640 medium supplemented with 5% fetal bovine serum, and 1% penicillin/streptomycin. The fresh medium was replaced every other day. Then, the cultured cells were dropped on the surface of the SiNW-ECIS, designed and fabricated pursuant to teachings of the present application. Prior to each experiment, cells were trypsinized to be detached from the substrate and resuspended on the SiNW surface. To minimize the effect of trypsinization, the procedure may last for less than 4 minutes at room temperature of about 20° C. The samples were held in an incubator for about 4 hours to achieve cells attachment on the SiNWs. Thereafter, the ABZ drug with low concentrations of about 2.1 nano-moles per liter and the PTX drug with low concentrations of about 0.1 nano-moles per liter were added to individual samples. Finally, the signal recording and biological assays were investigated about 2 hours and 6 hours after the drug treatment (6 hours and 10 hours after the beginning of culturing process).
Referring to FIGS. 12A-12G, comparative normalized diagrams of impedance (designated by ΔZ % and represented by solid black lines) and capacitance changes (designated by ΔC % and represented by dashed grey lines) are illustrated for MCF-7 cells seeded on SiNW electrodes after treating by 2.1 nano-moles per liter of ABZ and 0.1 nano-moles per liter of PTX. The time interval between the drug incubation and the signal extraction are 2 hours (designated by T1) and 6 hours (designated by T2). In addition, the same diagrams are plotted for control sample prepared with no drug treatment stage.
According to the method described in the present example, the samples were maintained in an incubator so that the signal extraction was repeated 10 hours after cells dropping (6 hours after drug incubation for treated samples) to monitor the time evolution of drug induced MT polymerization/depolymerization on bioelectrical response of the membrane.

[2] = test system: tubulin assemblies of MCF-7 cells; experiment: Confocal microscopy of tubulin assemblies of MCF-7 cells; assay type: cell-based, human
Protocol: In addition, an un-treated control sample was prepared as reference for comparison. Then, samples were washed with PBS and permeabilized with microtubule stabilizing buffer [80 mM PIPES-KOH (pH 6.8), 5 mM EGTA, and 1 mM MgCl2 containing 0.5% Triton X-100] for 5 min at room temperature before being fixed with chilled absolute methanol for 10 min at −20° C. Thereafter, the fixed cells were washed and incubated with monoclonal mouse anti-α-tubulin antibody (Sigma Co.) for 1 hour at room temperature followed by incubation with FITC-conjugated antimouse IgG antibody (Santa Cruz Biotechnology). The stained cells were mounted with Vectashield (Vector Laboratories, Burlingame, Calif.) and observed by confocal microscopy.

[3] = MCF-7, ABZ 2.1 nano-moles per liter, 2 hours after drug incubation (T1)
[4] = MCF-7, ABZ 2.1 nano-moles per liter
[5] = MCF-7, PTX 0.1 nano-moles per liter, 2 hours after treatment (T1)
[6] = MCF-7, PTX 0.1 nano-moles per liter

CCCSc1ccc2nc(NC(=O)OC)[nH]c2c1 [ABZ, Albendazole]
changes in membrane impedance versus control [1, 3]: 25%
variations in capacitance of the sensor versus control [1, 3]: 70%
change of norm in impedance of treated cells, T1 vs. T2 [1, 4]: about 60%
norm of capacitive changes, control sample more than treated sample [1, 4]: about 90%
spindle / microtubule morphology (confocal image) ([2]; MCF-7, ABZ 2.1 nano-moles per liter, 2 hours after treatment): abnormally reduced numbers of spindles or monopolar (monoaster) spindles
spindle / microtubule morphology (confocal image) ([2]; MCF-7, ABZ 2.1 nano-moles per liter, 6 hours after treatment): monoastered MTs are observable

CC(=O)O[C@H]1C(=O)[C@@]2(C)[C@H]([C@H](OC(=O)c3ccccc3)[C@]3(O)C[C@H](OC(=O)[C@H](O)[C@@H](NC(=O)c4ccccc4)c4ccccc4)C(C)=C1C3(C)C)[C@]1(OC(C)=O)CO[C@@H]1C[C@@H]2O [PTX, Paclitaxel]
variation in mean capacitance of the sensor versus control [1, 5]: about 60%
variation in mean impedance of the sensor versus control [1, 5]: about 50%
change of norm in impedance of treated cells, T1 vs. T2 [1, 6]: 15%
norm of capacitive changes, control sample more than treated sample [1, 6]: ~75%
spindle / microtubule morphology (confocal image) ([2]; MCF-7, PTX 0.1 nano-moles per liter, 2 hours after treatment): aggregated spindles
spindle / microtubule morphology (confocal image) ([2]; MCF-7, PTX 0.1 nano-moles per liter, 6 hours after treatment): increased aggregation in MT spindles
